Key:
[1] = tested on: interferon-stimulated gene (ISG) response; test: B6/JGpt-Trex1em1Cd1194/Gpt mouse model (ISG score); format: in vivo; details: B6/JGpt-Trex1em1Cd1194/Gpt mice, 100 mg/kg p.o. daily for 5 days
Method: Exemplary compounds were tested for the ability to alter the interferon-stimulated gene (ISG) response in a B6/JGpt-Trex1em1Cd1194/Gpt mouse model. Assay procedures and results are described below.
Nine 8-10 week old B6/JGpt-Trex1em1Cd1194/Gpt mice were acclimated to the lab for at least 5 days. Compound 2 was prepared daily in a 20% PEG400 (pH 3.5) solution for p.o. administration. Compound 2 was administered for 5 days.
(§1) Compound 2 was administered daily from Day 1 to Day 5. All mice were euthanized 1 hour after the last dose administration on Day 5. Heart and skin were harvested and snap frozen in liquid nitrogen, and plasma (EDTA) was collected for bioanalysis. Total RNA was isolated and ISG score for each sample was determined as in Part IIIa of Example 108.
Fifteen 6-8 week old B6/JGpt-Trex1em1Cd1194/Gpt mice were acclimated to the lab for at least 5 days. Compound 67 was prepared daily in a 20% PEG400 (pH 3.5) solution for p.o. administration. […] was administered for 5 days.
as §1, with “67” for “2”

[2] = tested on: THP1-Dual KO-TREX1 xenograft tumors; test: Altering IFN production in THP1 TREX1 KO xenografts; format: in vivo, CB-17 SCID female mice; details: decitabine 5 mg/kg IP, test compound 10, 30, or 100 mg/kg PO once daily for 4 days; tumors 24 h post-last dose; FIG. 6
Method: Exemplary compounds 2, 25 and 40 were tested for their ability to alter IFN levels in THP1-Dual™ KO-TREX1 xenografts in mice. Assay procedures are described below.
CB-17 SCID female mice were inoculated subcutaneously with 10 million THP1-Dual™ KO-TREX1 cells in 200 μl PBS with Matrigel (1:1) and grouped when tumor volume reached 350-400 mm^3. Mice bearing THP1-Dual™ KO-TREX1 xenograft tumors were then separated into 5 groups. Three groups were administered: (1) decitabine (DAC) at 5 mg/kg IP, once daily, for 4 days, and (2) test compound at 10, 30, or 100 mg/kg, PO, once daily, for 4 days. One group was administered decitabine (DAC) at 5 mg/kg IP, once daily, for 4 days, and the test compound vehicle control. The final group was administered the vehicle control from both the test compound and the vehicle control from decitabine. Decitabine is formulated in sterile PBS, pH 7.4, and Compound 2, 25, and 40 were formulated in 20% PEG400 in PBS.
Tumors were harvested 24 h post-last dose administered on day 4, ground in PBS at 50 Hz for 5 min, and kept on ice for 30 min while being vortexed every 5 min. […] Equal amounts of proteins were added to 96-well black plates, and luciferase signal was measured using the QUANTI-Luc™ detection medium according to manufacturer's instructions. Luminescence was measured using the EnVision® 2105 Multimode Plate Reader. […]

[3] = tested on: THP1-Dual KO-TREX1 xenograft tumors; test: Altering IFN production in THP1-Dual KO-TREX1 mouse xenografts (Compound 67); format: in vivo, CB-17 SCID female mice; details: decitabine 5 mg/kg SC, compound 0.3-100 mg/kg PO once daily for 5 days; tumors 4 h post-last dose; FIG. 9
Method: Exemplary Compound 67 was tested for its ability to alter IFN levels in THP1-Dual™ KO-TREX1 xenografts in mice. Assay procedures are described below.
CB-17 SCID female mice were inoculated subcutaneously with 10 million THP1-Dual™ KO-TREX1 cells in 200 μl PBS with Matrigel (1:1) and grouped at N=5 per treatment per sampling timepoint when tumor volume reached an average of 340 mm^3. Six groups were co-administered: (1) decitabine (DAC) at 5 mg/kg SC, once daily, for 5 days, and (2) test compound 67 at one of six doses (0.3 mg/kg PO, 1 mg/kg PO, 3 mg/kg PO, 10 mg/kg PO, 30 mg/kg PO, 100 mg/kg PO) once daily, for 5 days. Two additional groups were administered (1) decitabine and test compound vehicle control SC+PO, once daily, for 5 days, and (2) decitabine at 5 mg/kg SC, once daily, for 5 days. […]
Tumors were harvested 4 h post-last dose administered on day 5, grinded in PBS at 50 Hz for 5 min, kept on ice for 30 min while being vortexed every 5 min. […] Equal amounts of proteins were added to 96-well black plates, and luciferase signal was measured using the QUANTI-Luc™ detection medium according to manufacturer's instructions. Luminescence was measured using the EnVision® 2105 Multimode Plate Reader.
Experimental results are depicted in FIG. 9. […] In FIG. 9, IFN signal was measured in tumors harvested from mice 4 hours after the final decitabine and test compound dosing on day 5.

Compound | ISG score in the heart and skin [1] | inhibition of DAC-induced IFN signal in THP1 tumors [2] | inhibition of DAC-induced IFN signal in THP1 tumors [3]
Nc1ccn([C@H]2C[C@H](O)[C@](CO)(CCl)O2)c(=O)n1 [Compound 2, 4-amino-1-((2R,4S,5R)-5-(chloromethyl)-4-hydroxy-5-(hydroxymethyl)tetrahydrofuran-2-yl)pyrimidin-2(1H)-one] | lowers the ISG score | potent inhibition of DAC-induced IFN signal | 
Nc1ccn([C@@H]2O[C@@](CO)(CCl)[C@@H](O)[C@@H]2F)c(=O)n1 [Compound 40, 4-amino-1-((2R,3S,4R,5R)-5-(chloromethyl)-3-fluoro-4-hydroxy-5-(hydroxymethyl)tetrahydrofuran-2-yl)pyrimidin-2(1H)-one] |  | potent inhibition of DAC-induced IFN signal | 
Nc1nc(=O)n([C@@H]2O[C@@](CO)(CCl)[C@@H](O)[C@@H]2F)cc1F [Compound 67, 4-amino-1-[(2R,3S,4R,5R)-5-(chloromethyl)-3-fluoro-4-hydroxy-5-(hydroxymethyl)oxolan-2-yl]-5-fluoropyrimidin-2-one] | lowers the ISG score |  | dose-response inhibition of DAC-induced IFN signal

Source: patent publication US12187758B2 (ROME Therapeutics, Inc., priority 2022, dated 2025)
